# Activity calls are given as the source filed them. The calls are words filed in the database; no cut-off is given here.
# Columns and labels:
# N2a [1] = assay: Neuroprotective activity against OGD/R induced cell injury in mouse N2a cells assessed as cell viability at 10 uM preincubated under hypoxic condition for 2 hrs and measured after 24 hrs (reference value: 28.66 to 30.22 %); assay type: functional; conditions: time 26 hrs, read-out: Activity
# [2] = Tmax in Sprague-Dawley rat at 10 mg/kg, po measured upto 8 hrs by LC-MS/MS analysis; assay type: ADME, organism-based; conditions: in vivo
# [3] = AUC(0 to t) in Sprague-Dawley rat at 10 mg/kg, po measured upto 8 hrs by LC-MS/MS analysis; assay type: ADME, organism-based; conditions: in vivo
# [4] = Half-life in Sprague-Dawley rat at 10 mg/kg, po measured upto 8 hrs by LC-MS/MS analysis; assay type: ADME, organism-based; conditions: in vivo, po, 10 mg/kg, 8 h
# [5] = Cmax in Sprague-Dawley rat at 10 mg/kg, po measured upto 8 hrs by LC-MS/MS analysis; assay type: ADME, organism-based; conditions: in vivo, po, 10 mg/kg, 8 h
# [6] = AUC(0 to infinity) in Sprague-Dawley rat at 10 mg/kg, po measured upto 8 hrs by LC-MS/MS analysis; assay type: ADME, organism-based; conditions: in vivo, po, 10 mg/kg, 8 h
# [7] = Metabolic stability in human liver microsomes assessed as half life at 50 uM preincubated with NADPH for 5 mins followed by compound addition and measured upto 60 mins by LC-MS/MS analysis; assay type: ADME, Microsome
# [8] = Metabolic stability in human liver microsomes assessed as intrinsic clearance at 50 uM preincubated with NADPH for 5 mins followed by compound addition and measured upto 60 mins by LC-MS/MS analysis; assay type: ADME, Microsome; conditions: read-out: CLH
# [9] = Metabolic stability in monkey liver microsomes assessed as half life at 50 uM preincubated with NADPH for 5 mins followed by compound addition and measured upto 60 mins by LC-MS/MS analysis; assay type: ADME, Macaca mulatta, Microsome; conditions: rhesus monkey
# [10] = Metabolic stability in monkey liver microsomes assessed as intrinsic clearance at 50 uM preincubated with NADPH for 5 mins followed by compound addition and measured upto 60 mins by LC-MS/MS analysis; assay type: ADME, Macaca mulatta, Microsome; conditions: rhesus monkey, read-out: CLH
# [11] = Metabolic stability in dog liver microsomes assessed as half life at 50 uM preincubated with NADPH for 5 mins followed by compound addition and measured upto 60 mins by LC-MS/MS analysis; assay type: ADME, Canis lupus familiaris, Microsome
# [12] = Metabolic stability in dog liver microsomes assessed as intrinsic clearance at 50 uM preincubated with NADPH for 5 mins followed by compound addition and measured upto 60 mins by LC-MS/MS analysis; assay type: ADME, Canis lupus familiaris, Microsome; conditions: read-out: CLH
# [13] = Metabolic stability in rat liver microsomes assessed as half life at 50 uM preincubated with NADPH for 5 mins followed by compound addition and measured upto 60 mins by LC-MS/MS analysis; assay type: ADME, Microsome
# [14] = Metabolic stability in rat liver microsomes assessed as intrinsic clearance at 50 uM preincubated with NADPH for 5 mins followed by compound addition and measured upto 60 mins by LC-MS/MS analysis; assay type: ADME, Microsome; conditions: read-out: CLH
# [15] = Metabolic stability in mouse liver microsomes assessed as half life at 50 uM preincubated with NADPH for 5 mins followed by compound addition and measured upto 60 mins by LC-MS/MS analysis; assay type: ADME, Microsome
# [16] = Metabolic stability in mouse liver microsomes assessed as intrinsic clearance at 50 uM preincubated with NADPH for 5 mins followed by compound addition and measured upto 60 mins by LC-MS/MS analysis; assay type: ADME, Microsome; conditions: read-out: CLH
# [17] = Tmax in ICR mouse at 10 mg/kg, po measured upto 8 hrs by LC-MS/MS analysis; assay type: ADME, organism-based; conditions: in vivo
# [18] = Half-life in ICR mouse at 10 mg/kg, po measured upto 8 hrs by LC-MS/MS analysis; assay type: ADME, organism-based; conditions: in vivo
# [19] = Cmax in ICR mouse at 10 mg/kg, po measured upto 8 hrs by LC-MS/MS analysis; assay type: ADME, organism-based; conditions: in vivo
# [20] = AUC(0 to t) in ICR mouse at 10 mg/kg, po measured upto 8 hrs by LC-MS/MS analysis; assay type: ADME, organism-based; conditions: in vivo
# [21] = AUC(0 to infinity) in ICR mouse at 10 mg/kg, po measured upto 8 hrs by LC-MS/MS analysis; assay type: ADME, organism-based; conditions: in vivo
# [22] = Oral bioavailability in ICR mouse at 10 mg/kg measured upto 8 hrs by LC-MS/MS analysis; assay type: ADME, organism-based; conditions: in vivo
# [23] = Tmax in ICR mouse at 1 mg/kg, iv measured upto 8 hrs by LC-MS/MS analysis; assay type: ADME, organism-based; conditions: in vivo
# [24] = Cmax in ICR mouse at 1 mg/kg, iv measured upto 8 hrs by LC-MS/MS analysis; assay type: ADME, organism-based; conditions: in vivo
# [25] = AUC(0 to t) in ICR mouse at 1 mg/kg, iv measured upto 8 hrs by LC-MS/MS analysis; assay type: ADME, organism-based; conditions: in vivo
# [26] = AUC(0 to infinity) in ICR mouse at 1 mg/kg, iv measured upto 8 hrs by LC-MS/MS analysis; assay type: ADME, organism-based; conditions: in vivo
# [27] = Cmax in Sprague-Dawley rat at 10 mg/kg, po measured at 2 hrs by LC-MS/MS analysis; assay type: ADME, organism-based; conditions: in vivo
# [28] = AUC(0 to t) in Sprague-Dawley rat at 10 mg/kg, po measured at 2 hrs by LC-MS/MS analysis; assay type: ADME, organism-based; conditions: in vivo
# N2a [29] = assay: Neuroprotective activity against OGD/R induced cell injury in mouse N2a cells assessed as decrease in caspase-3 activity incubated for 24 hrs; assay type: functional, cell-based; conditions: dose 0.1-100 µM
# N2a [30] = assay: Neuroprotective activity against OGD/R induced cell injury in mouse N2a cells assessed as inhibition of cell damage at 0.1 to 100 uM incubated for 24 hrs; assay type: functional, cell-based; conditions: dose 0.1-100 µM
# N2a [31] = assay: Neuroprotective activity against OGD/R induced cell injury in mouse N2a cells assessed as reduction in apoptosis at 0.1 to 100 uM incubated for 24 hrs by TUNEL assay; assay type: functional, cell-based; conditions: dose 0.1-100 µM
# N2a [32] = assay: Neuroprotective activity against OGD/R induced cell membrane integrity loss in mouse N2a cells assessed as reduction in LDH release at 0.1 to 100 uM incubated for 24 hrs; assay type: functional, cell-based; conditions: dose 0.1-100 µM
# Mus musculus [33] = assay: Neuroprotective activity against tMCAO-reperfusion induced brain injury in iv dosed SPF C57 mouse model assessed as reduction in infarction region measured after 24 hrs; assay type: functional, organism-based; conditions: dose 3-30 mg/kg
# Mus musculus [34] = assay: Neuroprotective activity against tMCAO-reperfusion induced brain injury in SPF C57 mouse model assessed as reduction in infarct volume at 30 mg/kg, iv measured after 24 hrs (reference value: 41.48%); assay type: functional; parameters: scale not given: the % may be the effect or the level left
# Mus musculus [35] = assay: Neuroprotective activity against tMCAO-reperfusion induced brain injury in SPF C57 mouse model assessed as decrease in neurological deficit score at 30 mg/kg, iv measured after 24 hrs; assay type: functional
# Mus musculus [36] = assay: Neuroprotective activity against tMCAO-reperfusion induced brain injury in SPF C57 mouse model assessed as reduction in infarct volume at 10 mg/kg, iv measured after 24 hrs; assay type: functional; parameters: scale not given: the % may be the effect or the level left
# Mus musculus [37] = assay: Neuroprotective activity against tMCAO-reperfusion induced brain injury in SPF C57 mouse model assessed as reversal of reduced blood flow in semi-dark band area infarct volume at 3 to 30 mg/kg, iv measured after 24 hrs; assay type: functional, organism-based; conditions: dose 3-30 mg/kg
# Mus musculus [38] = assay: Neuroprotective activity against tMCAO-reperfusion induced brain injury in SPF C57 mouse model assessed as reduction in brain water content at 30 mg/kg, iv measured after 24 hrs; assay type: functional, organism-based
# Mus musculus [39] = assay: Neuroprotective activity against tMCAO-reperfusion induced brain injury in iv dosed SPF C57 mouse model assessed as decrease in cleaved caspase-3 expression measured after 24 hrs by Western blotting analysis; assay type: functional, organism-based; conditions: dose 3-30 mg/kg
# Mus musculus [40] = assay: Neuroprotective activity against tMCAO-reperfusion induced brain injury in iv dosed SPF C57 mouse model assessed as decrease in Bax expression measured after 24 hrs by Western blotting analysis; assay type: functional, organism-based; conditions: dose 3-30 mg/kg
# Mus musculus [41] = assay: Neuroprotective activity against tMCAO-reperfusion induced brain injury in iv dosed SPF C57 mouse model assessed as decrease in cytochrome C expression measured after 24 hrs by Western blotting analysis; assay type: functional, organism-based; conditions: dose 3-30 mg/kg
# Mus musculus [42] = assay: Neuroprotective activity against photo-thrombotic SPF C57 mouse model assessed as change in motor function at 30 mg/kg, po measured after day 1 to 3; assay type: functional, organism-based
# Mus musculus [43] = species: Mus musculus; assay: Neuroprotective activity against photo-thrombotic SPF C57 mouse model assessed as decrease in sensorimotor impairment measured after day 4 to 7; assay type: functional, organism-based
# Mus musculus [44] = assay: Neuroprotective activity against photo-thrombotic SPF C57 mouse model assessed as improvement in motor function at 30 mg/kg, po administered daily for 7 days; assay type: functional, organism-based; conditions: time 7.0 day
compound,measurement,setting,value
CCCCC(O)c1ccc(Cl)cc1-c1nn[nH]n1 (centres undefined),viability at 10 µM,N2a [1],27.5%
same,Tmax,"[2]; Sprague-Dawley, read-out: Tmax",15 min
same,AUC(0-t) at 8 h,[3],2670 ng·h/mL
CCCCC(O)c1ccccc1-c1cccs1 (centres undefined),viability at 10 µM,N2a [1],35.4%
CCCCC(O)c1ccc(Br)cc1-c1nn[nH]n1 (centres undefined),viability at 10 µM,N2a [1],56.6%
same,Tmax,"[2]; po, 10 mg/kg, 8 h",120 min
same,t1/2,[4],287 min
same,Cmax,[5],1130 ng/mL
same,AUC(0-t) at 8 h,[3],6990 ng·h/mL
same,AUC,[6],11160 ng·h/mL
same,half-life at 50 µM,[7],> 186 min
same,microsomal CLint at 50 µM,[8],< 7.4 µL/min/mg
same,half-life at 50 µM,[9],> 186 min
same,microsomal CLint at 50 µM,[10],< 7.4 µL/min/mg
same,half-life at 50 µM,[11],> 186 min
same,microsomal CLint at 50 µM,[12],< 7.4 µL/min/mg
same,half-life at 50 µM,[13],38.2 min
same,microsomal CLint at 50 µM,[14],36.3 µL/min/mg
same,half-life at 50 µM,[15],15.6 min
same,microsomal CLint at 50 µM,[16],89.1 µL/min/mg
same,Tmax,[17],15 min
same,half-life,[18],30.6 min
same,Cmax,[19],8710 ng/mL
same,AUC(0-t) at 8 h,[20],5240 ng·h/mL
same,AUC(0-inf),[21],5590 ng·h/mL
same,bioavailability,[22],94.9%
same,Tmax,[23],4.8 min
same,Cmax,[24],3760 ng/mL
same,AUC(0-t) at 8 h,[25],550 ng·h/mL
same,AUC(0-inf),[26],550 ng·h/mL
same,Cmax,[27],1070 ng/mL
same,AUCt,[28],5240 ng·h/mL
same,Activity,N2a [29],Dose-Dependent Effect
same,Activity,N2a [30],Active
same,Activity,N2a [31],Active
same,Activity,N2a [32],Active
same,Activity,Mus musculus [33],Dose-Dependent Effect
same,Activity,Mus musculus [34],9.59%
same,Activity,Mus musculus [35],2.07
same,Activity,Mus musculus [36],18.8%
same,Activity,Mus musculus [37],Active
same,Activity,Mus musculus [38],Active
same,Activity,Mus musculus [39],Dose-Dependent Effect
same,Activity,Mus musculus [40],Dose-Dependent Effect
same,Activity,Mus musculus [41],Dose-Dependent Effect
same,Activity,Mus musculus [42],Active
same,Activity,Mus musculus [43],Dose-Dependent Effect
same,Activity,Mus musculus [44],Active
CCCCC(O)c1ccc(Br)cc1-c1nnn(CC)n1 (centres undefined),viability at 10 µM,N2a [1],53.6%
same,Tmax,"[2]; Sprague-Dawley, read-out: Tmax",15 min
CCCCCC(O)c1ccccc1-c1nn[nH]n1 (centres undefined),viability at 10 µM,N2a [1],35.6%
CCCC(O)c1ccc(C2=CCCCC2)cc1-c1nn[nH]n1 (centres undefined),viability at 10 µM,N2a [1],39.1%
CCCCC(O)c1ccccc1-c1cc[nH]n1 (centres undefined),viability at 10 µM,N2a [1],39.5%
CCCCC(O)c1ccc(F)cc1-c1nn[nH]n1 (centres undefined),viability at 10 µM,N2a [1],35.1%
same,Tmax,"[2]; Sprague-Dawley, read-out: Tmax",15 min
same,AUC(0-t) at 8 h,[3],2670 ng·h/mL
CCCCC(O)c1cc(Br)ccc1-c1nn[nH]n1 (centres undefined),viability at 10 µM,N2a [1],37.6%
same,Tmax,"[2]; Sprague-Dawley, read-out: Tmax",15 min
same,AUC(0-t) at 8 h,[3],2670 ng·h/mL

# Source: ChEMBL document CHEMBL5579827, “Discovery of orally bioavailable phenyltetrazolium derivatives for the acute treatment and the secondary prevention of ischemic stroke” (Eur J Med Chem, 2024)
